Activity calls are given as the source filed them.
What was measured:
[1] = target: T1, Calpain-2 catalytic subunit (Sus scrofa, UniProt P43367); experiment: m-calpain protease blockers, concentration series – biochemical, fluorogenic peptide substrate, dose response (AID 1420); type: functional
T1 sequence (P43367 whole entry): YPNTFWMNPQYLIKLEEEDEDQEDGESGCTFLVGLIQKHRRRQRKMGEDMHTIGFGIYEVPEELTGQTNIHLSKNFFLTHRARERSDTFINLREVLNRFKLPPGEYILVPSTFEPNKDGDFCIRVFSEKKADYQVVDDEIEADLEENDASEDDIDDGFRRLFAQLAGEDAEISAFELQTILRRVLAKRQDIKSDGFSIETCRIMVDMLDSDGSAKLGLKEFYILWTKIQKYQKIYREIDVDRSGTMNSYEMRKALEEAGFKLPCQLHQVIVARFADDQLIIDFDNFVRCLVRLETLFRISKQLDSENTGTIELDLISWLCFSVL

[2] = target: T2, Short transient receptor potential channel 4 (Mus musculus, UniProt Q9QUQ5); experiment: calcium entry via TRPC4 opening agents – cell-based, HEK293 TRPC4/mu-opioid, Fluo-4 calcium, dose response (AID 434937); type: functional
T2 sequence (Q9QUQ5 whole entry): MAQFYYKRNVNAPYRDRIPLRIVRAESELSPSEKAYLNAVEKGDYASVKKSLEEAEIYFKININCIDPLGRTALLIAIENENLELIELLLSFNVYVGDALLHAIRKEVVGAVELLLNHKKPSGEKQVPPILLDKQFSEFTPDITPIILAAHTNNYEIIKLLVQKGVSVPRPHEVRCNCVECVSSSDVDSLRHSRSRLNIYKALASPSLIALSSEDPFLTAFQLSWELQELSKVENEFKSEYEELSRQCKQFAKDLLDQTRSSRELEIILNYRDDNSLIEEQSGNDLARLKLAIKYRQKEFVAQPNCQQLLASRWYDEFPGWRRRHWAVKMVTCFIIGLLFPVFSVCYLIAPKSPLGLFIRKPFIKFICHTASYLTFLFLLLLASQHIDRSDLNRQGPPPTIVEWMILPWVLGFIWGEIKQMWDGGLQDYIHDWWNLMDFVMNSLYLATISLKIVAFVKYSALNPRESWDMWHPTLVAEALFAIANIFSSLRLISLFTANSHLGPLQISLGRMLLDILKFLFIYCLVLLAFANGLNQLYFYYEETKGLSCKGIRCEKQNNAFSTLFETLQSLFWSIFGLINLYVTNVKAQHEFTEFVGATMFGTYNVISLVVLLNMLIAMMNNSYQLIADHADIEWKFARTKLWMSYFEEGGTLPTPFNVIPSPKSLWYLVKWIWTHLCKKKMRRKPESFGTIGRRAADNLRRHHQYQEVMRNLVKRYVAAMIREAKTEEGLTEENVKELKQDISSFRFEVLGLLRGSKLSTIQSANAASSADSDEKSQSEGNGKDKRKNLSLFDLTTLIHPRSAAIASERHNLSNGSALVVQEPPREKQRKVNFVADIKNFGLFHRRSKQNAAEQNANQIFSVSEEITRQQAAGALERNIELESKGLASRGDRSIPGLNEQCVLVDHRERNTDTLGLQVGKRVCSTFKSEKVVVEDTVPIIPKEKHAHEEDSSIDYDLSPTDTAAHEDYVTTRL

[3] = OVCAR8 cell viability loss – plate reader, dry powder samples, PAX8 project, dose response (AID 743197); type: functional, cell-based; conditions: OVCAR-8
Paired box protein Pax-8 = Paired box protein Pax-8 (Homo sapiens, UniProt Q06710); experiment: PAX8 transcriptional activity inhibition in RMG-I – RMG-I cells, luciferase, cherry-pick, dose response (AID 687027); type: functional, cell-based;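 note: luciferase reporter driven by Pax8 target thyroperoxidase promoter measured by SteadyGlo luminescence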
Chain of Paired box protein Pax-8 (Q06710 whole entry): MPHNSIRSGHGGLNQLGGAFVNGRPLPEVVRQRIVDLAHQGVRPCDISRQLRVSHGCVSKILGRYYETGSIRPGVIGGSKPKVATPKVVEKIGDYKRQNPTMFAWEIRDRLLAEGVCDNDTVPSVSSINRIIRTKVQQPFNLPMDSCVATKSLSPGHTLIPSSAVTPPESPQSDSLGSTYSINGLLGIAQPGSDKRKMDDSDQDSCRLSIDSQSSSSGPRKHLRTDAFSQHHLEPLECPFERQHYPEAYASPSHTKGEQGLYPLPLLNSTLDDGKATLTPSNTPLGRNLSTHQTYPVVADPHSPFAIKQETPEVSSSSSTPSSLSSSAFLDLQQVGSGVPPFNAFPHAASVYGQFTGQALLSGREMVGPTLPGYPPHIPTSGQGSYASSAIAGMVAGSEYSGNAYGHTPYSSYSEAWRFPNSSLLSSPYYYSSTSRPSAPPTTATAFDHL

[4] = target: T3, Heat shock factor protein 1 (Mus musculus, UniProt P38532); experiment: enhancement of HSF1-driven luciferase signal – cell-based, NIH3T3, luminescence, dose retest, confirmation (AID 435004); type: functional;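 note: stress induced by proteasome inhibitor MG132 added 30 min after compound; luciferase reporter driven by HSF1 response element in NIH3T3 cells; actives raise luminescence as potentiators of the MG132 stress response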
T3 sequence (P38532 whole entry): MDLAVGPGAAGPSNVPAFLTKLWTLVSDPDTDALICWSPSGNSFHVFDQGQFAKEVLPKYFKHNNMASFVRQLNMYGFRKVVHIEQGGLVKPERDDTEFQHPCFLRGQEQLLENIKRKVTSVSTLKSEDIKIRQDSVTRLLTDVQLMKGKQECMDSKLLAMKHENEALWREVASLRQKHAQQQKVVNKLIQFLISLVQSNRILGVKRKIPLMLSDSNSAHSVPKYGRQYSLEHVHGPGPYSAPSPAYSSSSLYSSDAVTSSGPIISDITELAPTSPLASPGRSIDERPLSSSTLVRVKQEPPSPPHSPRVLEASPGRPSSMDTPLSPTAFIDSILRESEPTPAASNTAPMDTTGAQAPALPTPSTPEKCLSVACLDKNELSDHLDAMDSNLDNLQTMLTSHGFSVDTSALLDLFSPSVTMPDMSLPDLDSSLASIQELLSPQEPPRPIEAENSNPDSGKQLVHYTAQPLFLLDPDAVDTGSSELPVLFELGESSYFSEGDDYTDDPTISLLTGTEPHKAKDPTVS

H9c2 = experiment: cells; type: functional, cell-based; conditions: Rattus norvegicus, H9c2, Myocardium;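 note: confirmatory concentration-response retest of ultra-high-throughput screening hits for modulation of myocardial damage; cell death induced by hydrogen peroxide oxidative stress; compound pretreatment for 60 min then peroxide exposure for 2 h; potency is for protecting the cells against peroxide damage rather than for killing them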
[5] = luciferase reporter signal suppression in cells – H4 neuroglioma cells, luminescence, dose response (AID 1990); type: functional, cell-based
[6] = tested on: Streptococcus sp. 'group A'; experiment: Streptococcus pyogenes SK(-)GAS viability under kanamycin – luminescence, BacTiterGlo, confirmation, counter-screen for streptokinase expression inhibitor project, dose response (AID 1900); type: functional, organism-based
Streptococcus = experiment: GAS UMAA2166 growth inhibition – luminescence, BacTiterGlo, counter-screen for streptokinase expression inhibitor project, dose response (AID 1915); type: functional, organism-based;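 note: potency for reduction of bacterial viability or growth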
[7] = Luminescence Cell-Based Dose Response HTS to Identify Inhibitors of 5'UTR Stem-Loop Driven Prion Protein mRNA Translation in H4 Neuroglioblastoma Cells. [Related pubchem assays: 1827 (Project Summary), 1813 (Primary HTS)]; type: functional
[8] = alpha-synuclein stem-loop luciferase translation blockers – H4 neuroglioma cells, luminescence, confirmation (AID 1988); type: functional, cell-based
[9] = target: T4, Carboxy-terminal domain RNA polymerase II polypeptide A small phosphatase 1 (Homo sapiens, UniProt Q9GZU7); experiment: CTDSP1 inhibitors, concentration-response, biochemical, absorbance readout, ultra-high-throughput screen actives (AID 540297); type: functional
T4 sequence (Q9GZU7 whole entry): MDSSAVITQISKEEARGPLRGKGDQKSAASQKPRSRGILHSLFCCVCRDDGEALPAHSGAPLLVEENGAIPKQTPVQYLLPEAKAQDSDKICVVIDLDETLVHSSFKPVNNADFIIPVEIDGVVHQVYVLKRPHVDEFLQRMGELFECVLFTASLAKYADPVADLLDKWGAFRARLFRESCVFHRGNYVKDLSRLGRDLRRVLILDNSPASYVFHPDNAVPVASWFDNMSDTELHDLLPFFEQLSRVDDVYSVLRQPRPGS

[10] = THP-1 cell cytotoxicity, dose response, cytotoxicity control for non-replicating M. tuberculosis project (AID 489025); type: functional
cells = type: functional
[11] = Vero E6 cell cytotoxicity, dose response, cytotoxicity control for non-replicating M. tuberculosis project, secondary assay (AID 492998); type: functional, VeroE6; conditions: Vero C1008

In the case of `CCOC(=O)NC(C(F)(F)F)(C(F)(F)F)P(=O)(c1ccccc1)c1ccccc1`, the IC50 [1] is reported as > 50 µM (not active).

In the case of `COc1ccc(/C=N/NC(=O)C2COc3ccccc3O2)cc1OC` (stereo not given), the EC50 [2] is reported as 0.841 µM (active).

With `O=C(NCCCN1CCN(CCCNC(=O)c2ccc3c(c2)OCO3)CC1)c1ccc2c(c1)OCO2` the EC50 [2] was 0.267 µM (active).

For `Cc1ccc(S(=O)(=O)Nc2ccc3c(c2)C(=O)N([C@@H](C)CO)C[C@H](C)[C@H](CN(C)Cc2ccc(C(F)(F)F)cc2)OCCCC[C@@H](C)O3)cc1`, the AC50 [3] was > 70 µM (inactive) and the AC50 (Paired box protein Pax-8) was 7.03 µM (active).

With `O=C(Nc1cccc(Cl)c1)N1CCC(CO)(CCOc2ccccc2)CC1` the EC50 [4] was 45 µM (active).

With `COCCN1CCN(c2c3c(nc4cc(-c5cccc(F)c5)nn24)CCC3)CC1` the IC50 (H9c2) was 6.93 µM (active).

For `CCCOc1ccc(C(=O)NNC(=S)NC(=O)c2ccccc2)cc1`, the EC50 [5] was 12.5 µM (active), the EC50 [6] was 0.54 µM (active) and the EC50 [2] was 3.35 µM (active). For the same compound, the EC50 (Streptococcus) was 0.762 µM (active), the EC50 [7] was 14.5 µM (active) and the EC50 [8] was > 120 µM (not active).

With `Cc1ccc(-n2nc(-c3ccco3)cc2C(=O)O)cc1` the IC50 [9] was 3.82 µM (active).

With `Cc1csc2ncnc(N3CCN(C(=O)Nc4ccc(OC(F)(F)F)cc4)CC3)c12` the IC50 [1] was 6.79 µM (not active).

In the case of `CC1(C)OC(=O)C(=Cc2ccc(-c3ccc(Cl)c(C(=O)O)c3)o2)C(=O)O1`, the IC50 [9] is reported as 4.62 µM (active).

With `COc1cc(Br)cc(CNc2ccc(F)c([N+](=O)[O-])c2)c1O` the IC50 [1] was 2.79 µM (active).

For `COc1cccc(NC(=O)CC2SC(Nc3ccccc3)=NC2=O)c1` (stereo not given), the IC50 [1] was > 50 µM (not active).

In the case of `COc1cc(Nc2nc3ccccc3n3nnnc23)cc(OC)c1OC`, the IC50 (H9c2) is reported as > 79 µM (inactive).

With `CSc1ccc(CCNC(=O)CSc2ccsc2[N+](=O)[O-])cc1` the IC50 [9] was 7.88 µM (active).

For `CCCn1c(=O)c(C(=O)Nc2ccccc2)c(O)c2ccccc21`, the IC50 (H9c2) was 9.48 µM (active).

In the case of `Cc1cc(N2CCN(c3ccccc3)CC2)nc(-n2nc(C)cc2C)n1`, the CC50 [10] is reported as > 40 µM (active), the IC50 (cells) is reported as 0.94 µM (active) and the CC50 [11] is reported as > 20 µM (active).

In the case of `NC(=O)c1cc2ccccc2o/c1=N\NC(=O)c1ccc(F)cc1`, the IC50 (H9c2) is reported as > 79 µM (inactive).

— ChEMBL document CHEMBL1201862, “PubChem BioAssay data set” (2004)
